Values after ≈ are worked out from the molar mass of the structure shown.
What was measured:
Experiment in all cases: MIC panel of challenge pathogens (CLSI)
Assay type in all cases: cell-based
[1] = tested on: Enterococcus faecalis ATCC29212; settings: Enterococcus faecalis ATCC29212
Experimental: (§1) The inocula for each bacterial strain were prepared by picking 5-10 distinct colonies from the culture plates and suspending them in the appropriate broth as per Clinical and Laboratory Standards Institute (CLSI) guidelines M07-A8, M24-A or M11-A7 as appropriate. The inoculum was resuspended by vigorous shaking on a vortex mixer for 15 s. The turbidity was then adjusted to McFarland standard 0.5 ([…]). The inoculum was further diluted in the appropriate media for MIC tests to give a final inoculum in each well of 2-8×10^5 CFU/ml. MICs were tested in the appropriate broth in accordance with the appropriate CLSI guidelines.
(§2) A stock solution of each compound was prepared at a concentration of 1.28 g/L in DMSO. The stock was further diluted in the appropriate media to give a top starting concentration of 128 mg/L in the assay. 100 μL of the appropriate media, as per CLSI guidelines, was dispensed into each well in columns 2-12. 200 μL of the each compound solution (at 256 mg/L) was dispensed into each well in column 1. 100 μL aliquots were pipetted from column 1 wells and dispensed into column 2 with a multichannel pipette (±2% coefficient of variation) thus diluting two-fold. 100 μL samples were then pipetted from column 2 wells and dispensed into column 3. The process was repeated through to column 10. The final 100 μL of diluted drug from column 10 was then discarded. Row 11 acted as a positive control (no compound, but organisms added), Row 12 acted as a negative control (no compound, and no organisms added).
(§3) 100 μL of the appropriate inoculum suspension in the appropriate media, as per CLSI guidelines, was added to the appropriate wells. […] All plates were incubated in the dark under aerobic or anaerobic conditions at 30-37° C. for 24-48 hours, according to the appropriate CLSI guideline. Plates were read visually 24-48 hours post inoculation. Endpoints of 100% inhibition were determined (CLSI interpretation endpoints following visual examination).
(§4) MIC50, MIC80, and 100% inhibition results are reported below in μg/mL in the following Tables, indicating each compound tested against a given species and strain: […]

[2] = tested on: Staphylococcus epidermidis NRS122; settings: Staphylococcus epidermidis NRS122
Experimental: as §1, §2, §3, §4

[3] = tested on: Staphylococcus aureus NRS2 (ATCC700698); settings: Staphylococcus aureus NRS2 (ATCC700698)
Experimental: as §1, §2, §3, §4

[4] = tested on: Staphylococcus aureus AUR131 007035; settings: AUR131007035, Staphylococcus aureus AUR131 007035
Experimental: as §1, §2, §3, §4

[5] = tested on: Staphylococcus epidermidis NRS7; settings: Staphylococcus epidermidis NRS7
Experimental: as §1, §2, §3, §4

[6] = tested on: Enterococcus faecalis ATCC51299; settings: Enterococcus faecalis ATCC51299
Experimental: as §1, §2, §3, §4

[7] = tested on: Staphylococcus aureus AUR59 7005; settings: AUR597005, Staphylococcus aureus AUR59 7005
Experimental: as §1, §2, §3, §4

[8] = tested on: Staphylococcus aureus NRS383; settings: Staphylococcus aureus NRS383
Experimental: as §1, §2, §3, §4

[9] = tested on: Staphylococcus aureus EUP MRSA002; settings: EUPMRSA002, Staphylococcus aureus EUP MRSA002
Experimental: as §1, §2, §3, §4

[10] = tested on: Bacillus cereus NCTC6349; settings: Bacillus cereus NCTC6349
Experimental: as §1, §2, §3, §4

[11] = tested on: Staphylococcus aureus EUP MRSA004; settings: EUPMRSA004, Staphylococcus aureus EUP MRSA004
Experimental: as §1, §2, §3, §4

[12] = tested on: Staphylococcus aureus NRS1 (ATCC700699); settings: Staphylococcus aureus NRS1 (ATCC700699)
Experimental: as §1, §2, §3, §4

[13] = tested on: Staphylococcus aureus AUR58 7005; settings: AUR587005, Staphylococcus aureus AUR58 7005
Experimental: as §1, §2, §3, §4

[14] = tested on: Enterococcus faecium ATCC700221; settings: Enterococcus faecium ATCC700221
Experimental: as §1, §2, §3, §4

[15] = tested on: Staphylococcus aureus NRS384; settings: Staphylococcus aureus NRS384
Experimental: as §1, §2, §3, §4

[16] = tested on: Staphylococcus aureus ATCC43300; settings: Staphylococcus aureus ATCC43300
Experimental: as §1, §2, §3, §4

[17] = tested on: Staphylococcus aureus EUP SAU040; settings: EUPSAU040, Staphylococcus aureus EUP SAU040
Experimental: as §1, §2, §3, §4

[18] = tested on: Staphylococcus aureus AUR60 7005; settings: AUR607005, Staphylococcus aureus AUR60 7005
Experimental: as §1, §2, §3, §4

[19] = tested on: Staphylococcus aureus NRS382; settings: Staphylococcus aureus NRS382
Experimental: as §1, §2, §3, §4

CCCCc1cccc(-c2cc(-c3nnn[nH]3)sc2Cc2ccc(Cl)cc2)c1 [DNM0606, 5-(4-(3-Butylphenyl)-5-(4-chlorobenzyl)thiophen-2-yl)-1H-tetrazole]
MIC ([1]; read-out: 100% inhibition): 1 µg/mL (≈ 2.45 µM) | MIC50 ([1]; read-out: MIC50 (50%)): 1 µg/mL (≈ 2.45 µM) | MIC80 ([1]; read-out: MIC80 (80%)): 1 µg/mL (≈ 2.45 µM) | MIC ([2]; read-out: 100% inhibition): 4 µg/mL (≈ 9.78 µM) | MIC50 ([2]; read-out: MIC50 (50%)): 2 µg/mL (≈ 4.89 µM) | MIC80 ([2]; read-out: MIC80 (80%)): 4 µg/mL (≈ 9.78 µM) | MIC ([3]; read-out: 100% inhibition): 0.5 µg/mL (≈ 1.22 µM) | MIC50 ([3]; read-out: MIC50 (50%)): 0.5 µg/mL (≈ 1.22 µM) | MIC80 ([3]; read-out: MIC80 (80%)): 0.5 µg/mL (≈ 1.22 µM) | MIC ([4]; read-out: 100% inhibition): 0.5 µg/mL (≈ 1.22 µM) | MIC50 ([4]; read-out: MIC50 (50%)): 0.5 µg/mL (≈ 1.22 µM) | MIC80 ([4]; read-out: MIC80 (80%)): 0.5 µg/mL (≈ 1.22 µM) | MIC ([5]; read-out: 100% inhibition): 1 µg/mL (≈ 2.45 µM) | MIC50 ([5]; read-out: MIC50 (50%)): 0.5 µg/mL (≈ 1.22 µM) | MIC80 ([5]; read-out: MIC80 (80%)): 0.5 µg/mL (≈ 1.22 µM) | MIC ([6]; read-out: 100% inhibition): 1 µg/mL (≈ 2.45 µM) | MIC50 ([6]; read-out: MIC50 (50%)): 1 µg/mL (≈ 2.45 µM) | MIC80 ([6]; read-out: MIC80 (80%)): 1 µg/mL (≈ 2.45 µM) | MIC ([7]; read-out: 100% inhibition): 0.5 µg/mL (≈ 1.22 µM) | MIC50 ([7]; read-out: MIC50 (50%)): 0.5 µg/mL (≈ 1.22 µM) | MIC80 ([7]; read-out: MIC80 (80%)): 0.5 µg/mL (≈ 1.22 µM) | MIC ([8]; read-out: 100% inhibition): ≤ 0.25 µg/mL | MIC50 ([8]; read-out: MIC50 (50%)): ≤ 0.25 µg/mL | MIC80 ([8]; read-out: MIC80 (80%)): ≤ 0.25 µg/mL | MIC ([9]; read-out: 100% inhibition): 0.5 µg/mL (≈ 1.22 µM) | MIC50 ([9]; read-out: MIC50 (50%)): 0.5 µg/mL (≈ 1.22 µM) | MIC80 ([9]; read-out: MIC80 (80%)): 0.5 µg/mL (≈ 1.22 µM) | MIC ([10]; read-out: 100% inhibition): 0.5 µg/mL (≈ 1.22 µM) | MIC50 ([10]; read-out: MIC50 (50%)): 0.5 µg/mL (≈ 1.22 µM) | MIC80 ([10]; read-out: MIC80 (80%)): 0.5 µg/mL (≈ 1.22 µM) | MIC ([11]; read-out: 100% inhibition): ≤ 0.25 µg/mL | MIC50 ([11]; read-out: MIC50 (50%)): ≤ 0.25 µg/mL | MIC80 ([11]; read-out: MIC80 (80%)): ≤ 0.25 µg/mL | MIC ([12]; read-out: 100% inhibition): 0.5 µg/mL (≈ 1.22 µM) | MIC50 ([12]; read-out: MIC50 (50%)): 0.5 µg/mL (≈ 1.22 µM) | MIC80 ([12]; read-out: MIC80 (80%)): 0.5 µg/mL (≈ 1.22 µM) | MIC ([13]; read-out: 100% inhibition): 1 µg/mL (≈ 2.45 µM) | MIC50 ([13]; read-out: MIC50 (50%)): 0.5 µg/mL (≈ 1.22 µM) | MIC80 ([13]; read-out: MIC80 (80%)): 1 µg/mL (≈ 2.45 µM) | MIC ([14]; read-out: 100% inhibition): 1 µg/mL (≈ 2.45 µM) | MIC50 ([14]; read-out: MIC50 (50%)): 1 µg/mL (≈ 2.45 µM) | MIC80 ([14]; read-out: MIC80 (80%)): 1 µg/mL (≈ 2.45 µM) | MIC ([15]; read-out: 100% inhibition): ≤ 0.25 µg/mL | MIC50 ([15]; read-out: MIC50 (50%)): ≤ 0.25 µg/mL | MIC80 ([15]; read-out: MIC80 (80%)): ≤ 0.25 µg/mL | MIC ([16]; read-out: 100% inhibition): ≤ 0.25 µg/mL | MIC50 ([16]; read-out: MIC50 (50%)): ≤ 0.25 µg/mL | MIC80 ([16]; read-out: MIC80 (80%)): ≤ 0.25 µg/mL | MIC ([17]; read-out: 100% inhibition): ≤ 0.25 µg/mL | MIC50 ([17]; read-out: MIC50 (50%)): ≤ 0.25 µg/mL | MIC80 ([17]; read-out: MIC80 (80%)): ≤ 0.25 µg/mL | MIC ([18]; read-out: 100% inhibition): 0.5 µg/mL (≈ 1.22 µM) | MIC50 ([18]; read-out: MIC50 (50%)): 0.5 µg/mL (≈ 1.22 µM) | MIC80 ([18]; read-out: MIC80 (80%)): 0.5 µg/mL (≈ 1.22 µM) | MIC ([19]; read-out: 100% inhibition): 0.5 µg/mL (≈ 1.22 µM) | MIC50 ([19]; read-out: MIC50 (50%)): 0.5 µg/mL (≈ 1.22 µM) | MIC80 ([19]; read-out: MIC80 (80%)): 0.5 µg/mL (≈ 1.22 µM)

From patent US9012655B2, “Antimicrobial/adjuvant compounds and methods” (Denouamed, Inc., priority 2011, dated 2015)
